Measurements from the supplement of paper PMC11061612.

Key:
Assay in all cases: combination Emax (second highest fraction inhibited in the dose matrix, 72 h); higher = more inhibition; extreme values may be limits of the assay
[1] = system: MLMA (Other Blood Carcinomas)
Summary of the method: (§1)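 Cell lines in DMEM/F12 or RPMI with 10% FBS were plated in 1536-well plates, held 24 hours at 37°C, 5% CO2, then given two-drug dose matrices for 72 hours (DMSO typically 0.2%). Viability was read by CellTiter-Glo 2.0 luminescence and scaled as inhibition from 0 (vehicle wells) to 1 (blank wells). Combination Emax is the second-highest inhibition in the matrix; Bliss excess is observed combination effect minus expected EA + EB − EA·EB, EA and EB being single-agent effects.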

[2] = system: AMO-1 (Plasma Cell Myeloma)
Summary of the method: as §1

[3] = system: TE-1 (Esophageal Squamous Cell Carcinoma)
Summary of the method: as §1

[4] = system: LU-65 (Non-Small Cell Lung Carcinoma)
Summary of the method: as §1

[5] = system: Caov-4 (Ovarian Carcinoma)
Summary of the method: as §1

[6] = system: KMOE-2 (Acute Myeloid Leukemia)
Summary of the method: as §1

[7] = system: PWR-1E (Non-Cancerous)
Summary of the method: as §1

[8] = system: OVCAR-4 (Ovarian Carcinoma)
Summary of the method: as §1

[9] = system: SCC-15 (Oral Cavity Carcinoma)
Summary of the method: as §1

[10] = system: NUGC-3 (Gastric Carcinoma)
Summary of the method: as §1

[11] = system: OE19 (Esophageal Adenocarcinoma)
Summary of the method: as §1

[12] = system: TK10 (Kidney Carcinoma)
Summary of the method: as §1

[13] = system: NCI-H1915 (Non-Small Cell Lung Carcinoma)
Summary of the method: as §1

[14] = system: EoL-1-cell (Acute Myeloid Leukemia)
Summary of the method: as §1

[15] = system: EW-24 (Ewing's Sarcoma)
Summary of the method: as §1

[16] = system: NCI-H358 (Lung Adenocarcinoma)
Summary of the method: as §1

[17] = system: KARPAS-299 (T-Cell Non-Hodgkin's Lymphoma)
Summary of the method: as §1

[18] = system: YH-13 (Glioblastoma)
Summary of the method: as §1

[19] = system: HSC-4 (Oral Cavity Carcinoma)
Summary of the method: as §1

[20] = system: HGC-27 (Gastric Carcinoma)
Summary of the method: as §1

Structure (SMILES) | combination Emax [1] | combination Emax [2] | combination Emax [3] | combination Emax [4] | combination Emax [5] | combination Emax [6] | combination Emax [7] | combination Emax [8] | combination Emax [9] | combination Emax [10] | combination Emax [11] | combination Emax [12] | combination Emax [13] | combination Emax [14] | combination Emax [15] | combination Emax [16] | combination Emax [17] | combination Emax [18] | combination Emax [19] | combination Emax [20]
CC(=O)c1c(C)c2cnc(Nc3ccc(N4CCNCC4)cn3)nc2n(C2CCCC2)c1=O [Palbociclib] + Cn1cnc2c(F)c(Nc3ccc(Br)cc3Cl)c(C(=O)NOCCO)cc21 [Selumetinib] (first compound max 10 µM, 7x7, partner max 10 µM) | 0.769 | 0.557 | 0.383 | 0.491 | 0.585 | 1 | 0.142 | 0.286 | 0.232 | 0.533 | 0.332 | 0.427 | 0.782 | 0.952 | 0.318 | 0.524 | 0.594 | 0.387 | 0.261 | 0.617
COc1cccc(OCCCN)c1-c1cc(Nc2cnc(C#N)cn2)n[nH]1 [Prexasertib] + C=CCn1c(=O)c2cnc(Nc3ccc(N4CCN(C)CC4)cc3)nc2n1-c1cccc(C(C)(C)O)n1 [AZD1775] (first compound max 1 µM, partner max 1 µM) | 0.963 | 0.99 | 0.763 | 0.873 | 0.98 | 0.992 | 0.975 | 0.866 | 0.638 | 0.873 | 0.943 | 0.661 | 0.749 | 0.998 | 0.7 | 0.769 | 0.978 | 0.858 | 0.641 | 0.991
COc1cccc(OCCCN)c1-c1cc(Nc2cnc(C#N)cn2)n[nH]1 [Prexasertib] + CCc1c2c(nc3ccc(O)cc13)-c1cc3c(c(=O)n1C2)COC(=O)[C@]3(O)CC [SN-38] (first compound max 1 µM, 7x7, partner max 0.3 µM) | 0.948 | 0.968 | 0.902 | 0.926 | 1 | 0.999 | 1 | 0.9 | 0.802 | 0.976 | 0.956 | 0.691 | 0.89 | 0.996 | 0.832 | 0.897 | 0.992 | 0.862 | 0.9 | 0.994
COc1cccc(OCCCN)c1-c1cc(Nc2cnc(C#N)cn2)n[nH]1 [Prexasertib] + CN(C)CCCOc1ccc(-c2ccc3ncc4c(c3c2)n(C2CCOCC2)c(=O)n4C)cn1 [AZD0156] (first compound max 1 µM, 7x7, partner max 1 µM) | 0.957 | 0.98 | 0.71 | 0.761 | 0.964 | 0.945 | 0.953 | 0.771 | 0.617 | 0.726 | 0.889 | 0.727 | 0.588 | 0.998 | 0.68 | 0.775 | 0.983 | 0.777 | 0.604 | 0.858
COc1cccc(OCCCN)c1-c1cc(Nc2cnc(C#N)cn2)n[nH]1 [Prexasertib] + C[C@@H]1COCCN1C2=NC(=NC(=C2)C3(CC3)[S@](=N)(=O)C)C4=C5C=CNC5=NC=C4 [AZD6738] (first compound max 1 µM, 7x7, partner max 10 µM) | 0.954 | 0.965 | 0.641 | 0.795 | 0.965 | 0.948 | 0.973 | 0.832 | 0.663 | 0.762 | 0.935 | 0.686 | 0.612 | 0.996 | 0.645 | 0.825 | 0.985 | 0.793 | 0.666 | 0.895
COc1cccc(OCCCN)c1-c1cc(Nc2cnc(C#N)cn2)n[nH]1 [Prexasertib] + Cc1cc2ncnn2cc1Nc1ncc2c(n1)n(C1CCOCC1)c(=O)n2C [AZD7648] (first compound max 1 µM, 7x7, partner max 10 µM) | 0.96 | 0.986 | 0.694 | 0.822 | 0.959 | 0.945 | 0.983 | 0.777 | 0.549 | 0.747 | 0.897 | 0.738 | 0.602 | 0.998 | 0.649 | 0.769 | 0.962 | 0.869 | 0.588 | 0.858
COc1cccc(OCCCN)c1-c1cc(Nc2cnc(C#N)cn2)n[nH]1 [Prexasertib] + O=C(c1cc(Cc2n[nH]c(=O)c3ccccc23)ccc1F)N1CCN(C(=O)C2CC2)CC1 [Olaparib] (first compound max 1 µM, 7x7, partner max 10 µM) | 0.954 | 0.982 | 0.621 | 0.788 | 0.976 | 0.974 | 0.71 | 0.743 | 0.482 | 0.726 | 0.648 | 0.625 | 0.665 | 1 | 0.696 | 0.85 | 1 | 0.804 | 0.674 | 0.91
CCc1c2c(nc3ccc(O)cc13)-c1cc3c(c(=O)n1C2)COC(=O)[C@]3(O)CC [SN-38] + CN(C)CCCOc1ccc(-c2ccc3ncc4c(c3c2)n(C2CCOCC2)c(=O)n4C)cn1 [AZD0156] (first compound max 0.3 µM, 7x7, partner max 1 µM) | 0.877 | 0.9 | 0.522 | 0.836 | 0.954 | 0.945 | 0.946 | 0.187 | 0.709 | 0.984 | 0.618 | 0.409 | 0.609 | 0.995 | 0.781 | 0.722 | 0.924 | 0.509 | 0.804 | 0.885
Cn1cnc2c(F)c(Nc3ccc(Br)cc3Cl)c(C(=O)NOCCO)cc21 [Selumetinib] + C=CCn1c(=O)c2cnc(Nc3ccc(N4CCN(C)CC4)cc3)nc2n1-c1cccc(C(C)(C)O)n1 [AZD1775] (first compound max 10 µM, partner max 1 µM) | 0.769 | 0.917 | 0.638 | 0.908 | 0.764 | 1 | 0.34 | 0.546 | 0.3 | 0.639 | 0.28 | 0.478 | 0.846 | 1 | 0.334 | 0.621 | 0.851 | 0.329 | 0.427 | 0.536
Cn1cnc2c(F)c(Nc3ccc(Br)cc3Cl)c(C(=O)NOCCO)cc21 [Selumetinib] + CC(C)n1c(=O)n(C)c2cnc3cc(F)c(-c4ccc(OCCCN5CCCCC5)nc4)cc3c21 [AZD1390] (first compound max 10 µM, 7x7, partner max 0.3 µM) | 0.23 | 0.364 | 0.384 | 0.598 | 0.492 | 0.976 | 0.131 | 0.126 | 0.176 | 0.328 | 0.128 | 0.325 | 0.641 | 0.762 | 0.132 | 0.444 | 0.347 | 0.131 | 0.132 | 0.171
Cn1cnc2c(F)c(Nc3ccc(Br)cc3Cl)c(C(=O)NOCCO)cc21 [Selumetinib] + CCN(CCO)CCCOc1ccc2c(Nc3cc(CC(=O)Nc4cccc(F)c4)[nH]n3)ncnc2c1 [AZD2811] (first compound max 10 µM, 7x7, partner max 1 µM) | 0.286 | 0.481 | 0.49 | 0.635 | 0.551 | 0.999 | 0.579 | 0.268 | 0.36 | 0.551 | 0.796 | 0.327 | 0.6 | 1 | 0.427 | 0.499 | 0.252 | 0.429 | 0.345 | 0.71
Cn1cnc2c(F)c(Nc3ccc(Br)cc3Cl)c(C(=O)NOCCO)cc21 [Selumetinib] + C[C@@H]1COCCN1C2=NC(=NC(=C2)C3(CC3)[S@](=N)(=O)C)C4=C5C=CNC5=NC=C4 [AZD6738] (first compound max 10 µM, 7x7, partner max 10 µM) | 0.596 | 0.885 | 0.585 | 0.808 | 0.76 | 1 | 0.935 | 0.532 | 0.435 | 0.666 | 0.606 | 0.573 | 0.701 | 1 | 0.667 | 0.586 | 0.929 | 0.51 | 0.595 | 0.734
CC(=O)Nc1cccc(-n2c(=O)n(C3CC3)c(=O)c3c(Nc4ccc(I)cc4F)n(C)c(=O)c(C)c32)c1 [Trametinib] + Cc1nc(-c2cn3c(n2)-c2ccc(-c4cnn(C(C)(C)C(N)=O)c4)cc2OCC3)n(C(C)C)n1 [Taselisib] (first compound max 1 µM, 7x7, partner max 10 µM) | 0.661 | 0.812 | 0.75 | 0.985 | 0.76 | 1 | 0.864 | 0.518 | 1 | 0.865 | 0.97 | 0.769 | 1 | 1 | 0.6 | 0.961 | 0.639 | 0.916 | 0.686 | 0.924
